Reference: US20050090517A1, “Pharmaceutical combinations of cox-2 inhibitors and opiates” (priority 2002, published 2005)
Like-named read-outs stand apart in the source and are kept apart here.

Columns and labels:
[1] = tested on: noxious ischaemia to the tail of Sprague-Dawley rats; test: Nociception during noxious ischaemia of the rat tail (tourniquet, escape latency); type: in vivo; details: median (95% confidence interval), n=10, cut-off 30 min
Method: Sprague-Dawley rats (Rattus norvegicus) both genders weighing 250-450 g were used for nociceptive tests. The rats were housed individually at an ambient temperature of 21-23° C. on a 12-hour light; 12-hour dark cycle, and were allowed free access to standard rat chow and tap water. Groups of ten rats were used for each test. Rats were returned to stock, and in good health, after the tests.
Ischaemia was induced by applying an inflatable tourniquet to the base of the restrained rat's tail, as detailed previously (Gelgor et al., 1992). […] The time between application of the tourniquet and the escape response, that is the escape latency, is a measure of sensitivity to the noxious stimulus induced by ischaemia. To prevent tissue damage, the tourniquet was removed if the rat had not responded within 30 min.
(§1) The tail flick latency (mean of three measurements, 1 min apart) was measured and then the agent under test was administered. Thirty minutes later the tourniquet (or sham tourniquet) was applied and the escape latency measured. Immediately after release of the tourniquet, the tail flick latency was again measured, and the measurements were repeated after 30 and 60 min of reperfusion. Following inspection of the data at all three periods of reperfusion, the investigations elected to base their assessment of antihyperalgesic activity on data obtained immediately after release of the tourniquet.
Paracetamol, meloxicam and codeine phosphate were provided by the applicant. Codeine phosphate was dissolved in water. Meloxicam was dissolved in sunflower oil. Paracetamol was suspended in sunflower oil. All three agents were administered in boluses of 0.2 ml, and the paracetamol suspension was flushed with water. In control experiments, the appropriate vehicle (water, sunflower oil, or both) was administered.
Each agent was administered separately, at three doses, to determine the antinociceptve activity, if any, of each independently. Pairs of agents then were administered at three doses for each pair. Finally, the combination of the three agents was administered, at three doses. […]

[2] = tested on: reperfusion hyperalgesia of the tail of Sprague-Dawley rats; test: Reperfusion hyperalgesia of the rat tail following transient ischaemia (tail flick latency, antihyperalgesic index); type: in vivo; details: for ED50: Rattus norvegicus, read-out: ED50 (dose at which reperfusion hyperalgesia is reduced by 50%), agent separately
Method: Sprague-Dawley rats (Rattus norvegicus) both genders weighing 250-450 g were used for nociceptive tests. The rats were housed individually at an ambient temperature of 21-23° C. on a 12-hour light; 12-hour dark cycle, and were allowed free access to standard rat chow and tap water. Groups of ten rats were used for each test.
The response of the rats to a noxious thermal stimulus was measured using a modified tail flick test, the details of which have previously been described (Gelgor et al., 1992). The rat's tail was submerged in a water bath controlled at 49° C., and the time to the first coordinated motor response of the tail measured, with a safety cut-off at 30 s. Tail skin temperature was maintained at 29° C. by placing all but the proximal 20 mm of the rat's tail in a temperature-controlled bath, before and between measurements, to obviate the potential confounding effects of changes in tail temperature on tail flick latency (Tjolsen et al., 1989).
The hyperalgesia which occurs during reperfusion of the tail following transient ischaemia, that is following the release of the tourniquet mentioned above, was measured by comparing the tail flick latency during reperfusion with that measured in the same animal before application of the tourniquet. Hyperalgesia is manifest as a reduced tail flick latency during reperfusion, and lasts about one hour (Gelgor et al., 1992).
as §1
Codeine phosphate was dissolved in water. Meloxicam was dissolved in sunflower oil. Paracetamol was suspended in sunflower oil. All three agents were administered in boluses of 0.2 ml, and the paracetamol suspension was flushed with water. In control experiments, the appropriate vehicle (water, sunflower oil, or both) was administered.
Each agent was administered separately, at three doses, to determine the antinociceptve activity, if any, of each independently. Pairs of agents then were administered at three doses for each pair. Finally, the combination of the three agents was administered, at three doses. In all cases, the ratio of the agents was fixed at 1 meloxicam: 4 codeine: 266 paracetamol.
Antihyperalgesia is measured by the extent to which an agent reverses the hyperalgesia induced by conditioning event, which, in the test case, was transient ischaemia. An antihyperalgesic index of zero means complete lack of antihyperalgesic activity, an index of 100% means full reversal of the hyperalgesia, and an index of more than 100% implies some analgesic activity added to the antihyperalgesic activity.

[3] = oral, single agent, least-squares regression, n=9 or 10, immediately after release of tourniquet

## COc1ccc2c3c1O[C@H]1[C@@H](O)C=C[C@H]4[C@@H](C2)N(C)CC[C@@]341 [Codeine, codeine phosphate]
[1]; codeine 20 mg/kg oral 30 min earlier
  Escape latency (min), Agent: 20.9 (11.9-30.0) min
[2]; po
  ED50: 2.4 mg/kg

## Cc1cnc(NC(=O)C2=C(O)c3ccccc3S(=O)(=O)N2C)s1 [Meloxicam, meloxicam]
[1]; meloxicam 5 mg/kg oral 30 min earlier
  Escape latency (min), Agent: 25.3 (15.7-30.0) min
[2]; [3]
  ED50: 2.6 mg/kg

## CC(=O)Nc1ccc(O)cc1 [Paracetamol, paracetamol]
[1]; paracetamol 266 mg/kg oral 30 min earlier
  Escape latency (min), Agent: 18.2 (9.2-30.0) min
[2]; [3]
  ED50: > 266 mg/kg
[2]; oral, three doses each (FIG. 2), paracetamol limited to 266 mg/kg
  Antihyperalgesic activity of each agent administered separately, in words: did not exhibit any antihyperalgesic activity
[2]; rat, in vivo
  Antihyperalgesic activity of the agent on its own at its dose in the ED50 of the triple combination, in words: no antihyperalgesic activity
